Common to all, as to type: physicochemical
Data set [1] can be described thus: Form stability analysis (solubility and concurrent slurry experiments). On the procedure:
As form conversions tend to happen faster at elevated temperature at 60° C., slurries were performed for the starting material used for the screening (A/G mixture) during 18 h at 60° C.
Forms J and C were identified as potential non-solvates and their stability was investigated. Form J could be eliminated as stable form because, in part, the DSC (FIG. 36) indicated an exothermic form conversion around 140° C. This leads to a form melting at 210° C., which likely represents Form G and therefore represents a monotropic relation.
Form C was obtained by drying a Form C/J mixture. The XRPD pattern appeared to contain traces of reflexes of Form J. Slurries of Form C seeded with Form A (15% w/w) in ethanol and acetone were performed during 18 h. The resulting solid was pure Form A. This also confirmed the exothermic event observed in DSC (FIG. 16) which indicated a monotropic relation to the form formed in DSC around 130° C. (melting point 210° C., which, as described herein, is likely Form G).

The nature of data set [2]: Slurry screening, solubility determined by HPLC. As to conditions: thermodynamic from solid; for solubility at 5 days: slurry stirred 5 days; for Solubility: solution. On the procedure: (§1) For purity estimation and determination of the solubility in solution a generic in-house HPLC method was used. HPLC was performed using a Phenomenex Luna 3 μm C18 (50×4.6 mm) column and detected with a DAD detector, recording at 214 nm.
The slurry experiments were performed by taking approximately 40 mg starting material and slurrying in each of the solvent mixtures as detailed Table 3 using a magnetic stir bar. Solvents were chosen as described to have a high diversity (e.g., in polarity, protic/aprotic). The solvents were not necessarily selected for pharmaceutical suitability in regards to ICH guidelines. Only as much solvent or mixtures as needed to slurry/suspend the material was used—starting from 200 μL to a maximum of 2 mL. The slurries were stirred for 5 days. The suspensions were filtered and the filter cake slightly dried to not destroy potential solvates and subjected to XRPD. In case suspensions started to run through the filter the suspensions were dried using a nitrogen stream. As the solubility was tested in the solvents, the evaporated solvent provides a small amount of solid compared to the material suspended (i.e., the slurry form still should be dominant).

Data set [3] can be described thus: Solubility of Form A at 20° C. and 40° C. To be noted: organic solvent or mixture, thermodynamic from solid. The protocol:
as §1
To develop a Form A crystallization, a series of solubility data points was collected (Table 5). An amount of up to 15 mg was suspended in 150 μL and the mixture stirred for 2 days. Solubility was then determined by HPLC or by calculation if a solution was observed.

A short description of data set [4]: Solubility of Forms A and G after 40 min stirring. To be noted: organic solvent or mixture, thermodynamic from solid. On the procedure: as §1

The structures appear in SMILES notation. Values after ≈ are worked out from the molar mass of the structure shown. Read-outs that look alike come from different tables or passages of the source. A value given as a limit tells only on which side of the number the result lay.

In the case of `CCCN(CCC)C(=O)C1=Cc2ccc(-c3ccc(C(=O)N4CCCC4)cc3)cc2N=C(N)C1` [Form J, (1E, 4E)-2-amino-N,N-dipropyl-8-(4-(pyrrolidine-1-carbonyl)phenyl)-3H-benzo[b]azepine-4-carboxamide], the “stability relative to other crystalline forms” value in data set [1] is “less stable than Form A”; in data set [1] (listed as J), “less stable than Forms A and G”.
For the compound `CCCN(CCC)C(=O)C1=Cc2ccc(-c3ccc(C(=O)N4CCCC4)cc3)cc2N=C(N)C1` [starting material, (1E, 4E)-2-amino-N,N-dipropyl-8-(4-(pyrrolidine-1-carbonyl)phenyl)-3H-benzo[b]azepine-4-carboxamide], the solubility at 5 days in data set [2] (aqueous with cosolvent or surfactant or cyclodextrin, solvent EtOH/water 1/1) was 3220 µg/mL (≈ 7.02 mM); in data set [2] (aqueous with cosolvent or surfactant or cyclodextrin, solvent EtOH/water 3/1), 21000 µg/mL (≈ 45.7 mM); in data set [2] (aqueous with cosolvent or surfactant or cyclodextrin, solvent IPA/water 3/1), 16900 µg/mL (≈ 36.8 mM); in data set [2] (aqueous with cosolvent or surfactant or cyclodextrin, solvent ac/water 1/2), 480 µg/mL (≈ 1.05 mM); in data set [2] (organic solvent or mixture, solvent 1-propanol), 12000 µg/mL (≈ 26.2 mM); in data set [2] (organic solvent or mixture, solvent 2-Me-THF), 1030 µg/mL (≈ 2.25 mM). The solubility at 5 days was 6860 µg/mL (≈ 15 mM) in data set [2] (organic solvent or mixture, solvent 2-propanol); 810 µg/mL (≈ 1.77 mM) in data set [2] (organic solvent or mixture, solvent ACN); above 70000 µg/mL in data set [2] (organic solvent or mixture, solvent DCM); 28800 µg/mL (≈ 62.8 mM) in data set [2] (organic solvent or mixture, solvent DMSO); 2690 µg/mL (≈ 5.87 mM) in data set [2] (organic solvent or mixture, solvent EtOAc wet); 80 µg/mL (≈ 0.174 mM) in data set [2] (organic solvent or mixture, solvent MCH). The solubility at 5 days in data set [2] (organic solvent or mixture, solvent MEK) amounted to 3670 µg/mL (≈ 8 mM); in data set [2] (organic solvent or mixture, solvent MIBK), 790 µg/mL (≈ 1.72 mM); in data set [2] (organic solvent or mixture, solvent NMP), 52300 µg/mL (≈ 114 mM); in data set [2] (organic solvent or mixture, solvent TBME) it was 160 µg/mL (≈ 0.349 mM); in data set [2] (organic solvent or mixture, solvent THF), 5710 µg/mL (≈ 12.5 mM); in data set [2] (organic solvent or mixture, solvent acetone) it was 1370 µg/mL (≈ 2.99 mM). Besides, the solubility at 5 days in data set [2] (organic solvent or mixture, solvent chlorobenzene) is 1810 µg/mL (≈ 3.95 mM); in data set [2] (organic solvent or mixture, solvent diethylether), 20 µg/mL (≈ 0.0436 mM); in data set [2] (organic solvent or mixture, solvent dioxane) it was 5100 µg/mL (≈ 11.1 mM); in data set [2] (organic solvent or mixture, solvent ethanol), 11600 µg/mL (≈ 25.3 mM); in data set [2] (organic solvent or mixture, solvent ethyl acetate) it was 570 µg/mL (≈ 1.24 mM); in data set [2] (organic solvent or mixture, solvent heptane) it was 20 µg/mL (≈ 0.0436 mM). The solubility at 5 days in data set [2] (organic solvent or mixture, solvent iPrOAc) stood at 600 µg/mL (≈ 1.31 mM); in data set [2] (organic solvent or mixture, solvent methanol), 29800 µg/mL (≈ 65.1 mM); in data set [2] (organic solvent or mixture, solvent methyl acetate), 940 µg/mL (≈ 2.05 mM); in data set [2] (organic solvent or mixture, solvent toluene), 450 µg/mL (≈ 0.981 mM); in data set [2] (solvent water), 40 µg/mL (≈ 0.0872 mM). Moreover, the Solubility in data set [2] (aqueous with cosolvent or surfactant or cyclodextrin, solvent HOAc/water 1/1) is above 100000 µg/mL; in data set [2] (organic solvent or mixture, solvent trifluoroethanol) it was above 130000 µg/mL. The “form of isolated solid after slurry” value in data set [1] (slurries during 18 h at 60° C.) is “pure Form A”.
Take `CCCN(CCC)C(=O)C1=Cc2ccc(-c3ccc(C(=O)N4CCCC4)cc3)cc2N=C(N)C1` [Form A, (1E, 4E)-2-amino-N,N-dipropyl-8-(4-(pyrrolidine-1-carbonyl)phenyl)-3H-benzo[b]azepine-4-carboxamide]: the solubility at 2 days in data set [3] (2-PrOH, 20° C., stirred 2 days) worked out at 4500 µg/mL (≈ 9.81 mM); in data set [3] (2-PrOH, 40° C., stirred 2 days) it was 9590 µg/mL (≈ 20.9 mM); in data set [3] (DMSO, 20° C., stirred 2 days), 21600 µg/mL (≈ 47.1 mM); in data set [3] (DMSO, 40° C., stirred 2 days), 50900 µg/mL (≈ 111 mM); in data set [3] (DMSO/EtOAc 1:1 v/v, 20° C., stirred 2 days), 15000 µg/mL (≈ 32.7 mM); in data set [3] (DMSO/EtOAc 1:1 v/v, 40° C., stirred 2 days), 36900 µg/mL (≈ 80.5 mM). Also, the solubility at 2 days is 17200 µg/mL (≈ 37.5 mM) in data set [3] (DMSO/TBME 1:1 v/v, 20° C., stirred 2 days); 44600 µg/mL (≈ 97.3 mM) in data set [3] (DMSO/TBME 1:1 v/v, 40° C., stirred 2 days); 8500 µg/mL (≈ 18.5 mM) in data set [3] (EtOH, 20° C., stirred 2 days); 24000 µg/mL (≈ 52.3 mM) in data set [3] (EtOH, 40° C., stirred 2 days); 3700 µg/mL (≈ 8.07 mM) in data set [3] (THF, 20° C., stirred 2 days); 7700 µg/mL (≈ 16.8 mM) in data set [3] (THF, 40° C., stirred 2 days). For the same compound, the solubility at 2 days in data set [3] (THF/EtOH 8:2 v/v, 20° C., stirred 2 days) was 13400 µg/mL (≈ 29.2 mM); in data set [3] (THF/EtOH 8:2 v/v, 40° C., stirred 2 days), 27800 µg/mL (≈ 60.6 mM); in data set [3] (THF/H2O 8:2 v/v, 20° C., stirred 2 days), 38600 µg/mL (≈ 84.2 mM); in data set [3] (THF/H2O 8:2 v/v, 40° C., clear solution with 10 vol of solvent mix), above 100000 µg/mL; in data set [3] (Toluene/2-PrOH 7:3 v/v, 20° C., stirred 2 days), 23100 µg/mL (≈ 50.4 mM); in data set [3] (Toluene/2-PrOH 7:3 v/v, 40° C., stirred 2 days), 45900 µg/mL (≈ 100 mM). Further, the solubility at 2 days in data set [3] (Toluene/MeOH 7:3 v/v, 20° C., clear solution with 10 vol of solvent mix) was above 100000 µg/mL; in data set [3] (Toluene/MeOH 7:3 v/v, 40° C., clear solution with 10 vol of solvent mix), above 100000 µg/mL. Moreover, in data set [1], the “stability relative to other crystalline forms” value was “more stable than Form G at 20 °C”. In data set [1] (from 0° C. to 60° C.), the “thermodynamic stability of the crystalline form” value is “thermodynamically most stable form”.
For the compound `CCCN(CCC)C(=O)C1=Cc2ccc(-c3ccc(C(=O)N4CCCC4)cc3)cc2N=C(N)C1` [Form C, (1E, 4E)-2-amino-N,N-dipropyl-8-(4-(pyrrolidine-1-carbonyl)phenyl)-3H-benzo[b]azepine-4-carboxamide], the “stability relative to other crystalline forms” value in data set [1] is “less stable than Forms A and G”. Besides, the “form of resulting solid after slurry” value in data set [1] (seeded with Form A (15% w/w), slurries in ethanol and acetone during 18 h) is on record as “pure Form A”.
Take `CCCN(CCC)C(=O)C1=Cc2ccc(-c3ccc(C(=O)N4CCCC4)cc3)cc2N=C(N)C1` [Compound A, (1E, 4E)-2-amino-N,N-dipropyl-8-(4-(pyrrolidine-1-carbonyl)phenyl)-3H-benzo[b]azepine-4-carboxamide]: the solubility at 40 min worked out at 4700 µg/mL (≈ 10.2 mM) in data set [4] (EtOH, 0 °C); 11700 µg/mL (≈ 25.5 mM) in data set [4] (EtOH, 22 °C); 32100 µg/mL (≈ 70 mM) in data set [4] (EtOH, 60 °C); 1800 µg/mL (≈ 3.92 mM) in data set [4] (MEK, 0 °C); 2400 µg/mL (≈ 5.23 mM) in data set [4] (MEK, 22 °C); 3700 µg/mL (≈ 8.07 mM) in data set [4] (MEK, 60 °C).
As to `CCCN(CCC)C(=O)C1=Cc2ccc(-c3ccc(C(=O)N4CCCC4)cc3)cc2N=C(N)C1` [Form H, (1E, 4E)-2-amino-N,N-dipropyl-8-(4-(pyrrolidine-1-carbonyl)phenyl)-3H-benzo[b]azepine-4-carboxamide], the “stability relative to other crystalline forms” value in data set [1] is “Form A is more stable than Form H”.

These data come from patent US10604510B2, “Solid forms comprising (1E, 4E)-2-amino-N,N-dipropyl-8-(4-(pyrrolidine-1-carbonyl)phenyl)-3H-benzo[B]azepine-4-carboxami compositions thereof, and uses thereof” (Celgene Corporation, priority 2014, dated 2020).
